Here are results for one molecule from patent EP0518675A2, “Cyclic renin inhibitors” (MERCK & CO. INC., priority 1991, dated 1992).

Square brackets hold non-standard residues; d marks the D form. Peptide text beside a SMILES is read from it. * marks the point of attachment. Sta = CC(C)C[C@H](N)[C@@H](O)CC(=O)O; Isovaleryl = CC(C)CC(=O)*

For experiment [1], the system named is human plasma renin. Briefly: human plasma renin IC50 determination at pH 7.4. It counts as biochemical. To be noted: against human plasma renin. On the procedure: The following method was used for in vitro evaluation of the renin inhibitors of Formula I: The human plasma renin IC50 values for inhibitors of Formula I were determined at pH 7.4 following the procedure described in J. Boger, L.S. Payne, D.S. Perlow, N.S. Lohr, M. Poe, E.H. Blaine, E. H. Elm, T.W. Schorn, B.I. Lamont, T.-Y. Lin, M. Kawai, D.H. Rich and D.F. Veber, J. Med. Chem., 28, 1779 (1985).

The test system of experiment [2] is conscious sodium-deficient Rhesus monkeys. Kind of experiment: intravenous evaluation of renin inhibitors in conscious sodium-deficient Rhesus monkeys (blood pressure lowering). It is filed as in vivo. The conditions noted are these: i.v. bolus injection, mean arterial pressure. The source says:
The following methods were used for in vivo evaluation of the renin inhibitors of Formua I: Intravenous evaluation of renin inhibitors in conscious sodium-deficient Rhesus monkeys: Rhesus monkeys, male and female, weighing 2.6 - 4.5 Kg, were surgically prepared with chronic arterial and venous catheters and vascular access ports for direct monitoring of mean arterial pressure (MAPI) and heart rate (HR). The animals were maintained on a low sodium diet (1.2 mmol Na/day) plus fruit for a week, and administered LASIX (furosemide) at2.5 mg/Kg, intramuscularly the evening prior to the experiment. The animals had been trained to sit quietly in the chairs with water AD LIBIUM for the duration of the experiment. The inhibitors were administered by bolus injection using 0.5% acetic acid-5% dextrose in water as the vehicle (0.4 ml/Kg), and MAP and HRwere measured. Blood samples were withdrawn at different time intervals beginning at the nadir of hypotensive response. PRA was determined as described above. […] A projected ED50 dose for each inhibitor was calculated using the following formula: ED50 (Test Inhibitor, umoles/Kg) = ED50 (SCRIP) X [IC50 (Test Inhibitor)/IC50 (SCRIP)], where the IC50 values were determined against human plasma renin. […] Percent inhibition of monkey PRA, changes in MAP and HR were calculated and plotted against time. […]

The IC50 is the concentration that inhibits the measured activity by half. A higher IC50 goes with a need for much substance. In experiment [1], `CC(C)CC(=O)N[C@@H](Cc1c[nH]cn1)C(=O)N1CCC[C@H]1C(=O)N[C@@H](Cc1ccccc1)C(=O)N[C@@H](Cc1c[nH]cn1)C(=O)N[C@@H](CC(C)C)[C@@H](O)CC(=O)N[C@@H](CC(C)C)C(=O)N[C@@H](Cc1ccccc1)C(N)=O` [SCRIP, Iva-His-Pro-Phe-His-Sta-Leu-Phe-NH2] (Isovaleryl-HPFH[Sta]LF-NH2) had an IC50 of 3.7 nM. Besides, the “i.v. dose of the standard inhibitor required to lower blood pressure by 50% of the maximal response (ED50)” value in experiment [2] worked out at 0.039 µmol/kg.
